Several values for one entry are separate records, joined by “and”; a condition that tells them apart may be missing. Identical values can stand only once. Entries after “also recorded” stand apart in the source; their conditions may differ.
What was measured:
[1] = test system: Methanosarcina sp.; parameters: method as in Shcherbakova et al., 2015; settings: 9.8 mM NaClO4; ref Shcherbakova et al., 2015; cited from earlier work
[2] = test system: Halorubrum lacusprofundi; test: Anaerobic growth assay of Halorubrum lacusprofundi; format: cell-based; settings: 40 mM (0.04 M) perchlorate, dark, no oxygen, 8 days
Protocol: (§1) For aerobic growth, cultures of halophiles were shaken in the light in test tubes at 42°C in CM^+ for Halobacterium sp. NRC-1 and at 37°C in ATCC 1682 media for H. lacusprofundi (Berquist et al., [2007]), adjusted to the desired concentration of NaClO4, MgCl2, and Mg(ClO4)2. For anaerobic growth, cultures were grown in the dark without shaking, essentially as described previously (Oren et al., [2014]). OD600 was recorded with a Spectronic 200 (ThermoFisher Scientific, Waltham, MA) test tube reader. Growth rates were calculated by using the slope of a line of regression calculated from early to mid-log phase.

[3] = test system: Methanobacterium veterum MK4 VKM B-2440; parameters: method as in Shcherbakova et al., 2015; settings: 9.8 mM NaClO4; ref Shcherbakova et al., 2015; cited from earlier work
[4] = test system: Halobacterium sp. NRC-1; test: Anaerobic growth assay of Halobacterium sp. NRC-1; format: cell-based; settings: 40 mM NaClO4, dark, no oxygen, 8 days
Protocol: as §1

[5] = test system: Methanobacterium articum M2 VKM B-2372; parameters: method as in Shcherbakova et al., 2015; settings: 9.8 mM NaClO4; ref Shcherbakova et al., 2015; cited from earlier work
[6] = molecular target: T1, H. lacusprofundi β-galactosidase enzyme (Halorubrum lacusprofundi, UniProt B9LW38); test: Steady-state kinetic inhibition of purified β-galactosidase (ONPG); format: biochemical; settings: for type of inhibition: Lineweaver-Burk / Dixon plots
T1 construct: made in house; host or cells: Halobacterium sp; NRC-1 (pRK42)
T1 sequence (B9LW38 1-700): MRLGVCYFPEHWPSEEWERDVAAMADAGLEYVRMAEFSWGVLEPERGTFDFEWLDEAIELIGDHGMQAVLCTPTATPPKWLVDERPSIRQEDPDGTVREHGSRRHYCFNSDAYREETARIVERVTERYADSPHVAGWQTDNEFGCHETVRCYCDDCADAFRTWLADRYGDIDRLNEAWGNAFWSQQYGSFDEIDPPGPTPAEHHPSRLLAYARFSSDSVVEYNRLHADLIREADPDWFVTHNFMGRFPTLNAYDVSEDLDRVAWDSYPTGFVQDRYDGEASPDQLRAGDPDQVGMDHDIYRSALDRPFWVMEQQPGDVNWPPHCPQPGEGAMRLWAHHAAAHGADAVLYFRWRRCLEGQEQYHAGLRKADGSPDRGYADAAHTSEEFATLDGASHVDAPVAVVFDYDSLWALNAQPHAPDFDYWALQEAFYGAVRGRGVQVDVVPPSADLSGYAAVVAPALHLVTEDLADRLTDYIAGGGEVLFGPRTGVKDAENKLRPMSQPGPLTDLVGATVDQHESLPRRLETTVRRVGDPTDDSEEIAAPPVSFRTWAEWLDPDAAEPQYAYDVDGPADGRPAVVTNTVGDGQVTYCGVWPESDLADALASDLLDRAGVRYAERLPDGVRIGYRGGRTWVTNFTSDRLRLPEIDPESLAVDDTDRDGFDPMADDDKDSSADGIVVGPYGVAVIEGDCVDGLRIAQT
Protocol: To purify β-galactosidase, cultures of Halobacterium sp. NRC-1 (pRK42) (Karan et al., [2013]) were grown to late-log phase (OD600 ∼ 1.0), harvested, resuspended in binding buffer (20 mM phosphate buffer, 2.0 M NaCl, 10% (v/v) glycerol, 30 mM imidazole, pH 7.4), and lysed by sonication (Model 50 Sonic Dismembrator, ThermoFisher Scientific, Waltham, MA). Cell debris was removed by centrifugation (25,000g, 4°C, 10 min) in an Eppendorf 5417C centrifuge, and resulting crude extract was filtered through a 0.2 μm polyethersulfone filter (ThermoFisher Scientific, Waltham, MA). The proteins were purified by using Nickel HisTrap HP Columns (GE Healthcare, Chicago, IL), equilibrated, and washed with binding buffer, and eluted sequentially with 2 M NaCl, 100 mM phosphate buffer (pH 7.4) supplemented with 40, 80, 100, 200, and 500 mM imidazole.
Column fractions were tested for activity with o-nitrophenyl-β-D-galactopyranoside (ONPG, ThermoFisher Scientific, Waltham, MA). Active fractions were combined and protein concentration estimated by absorption at 280 nm with a Shimadzu UV-1601 spectrophotometer (Shimadzu Corporation, Kyoto, Japan). To confirm purity, the protein was analyzed by 10% SDS-PAGE followed by staining with Coomassie Blue (Millipore Sigma, Billerica, MA).
The inhibitory properties of Mg^2+ and ClO4^− ions on the β-galactosidase enzyme were tested through steady-state kinetics with a Shimadzu UV-1601 spectrophotometer. The assay solution containing 10 μg/mL enzyme was preincubated at 50°C followed by addition of ONPG at three different concentrations (1, 2.5, and 5 mM), and absorption was recorded at 420 nm. V0, the Michaelis constant (Km), as well as Vmax, were determined with UV Probe ver. 4.23 software (Shimadzu Corporation, Kyoto, Japan). kcat was calculated from given values of Km and Vmax. After the kinetic experiments were recorded, Lineweaver-Burk plots for each concentration of the inhibitory ion were used to determine whether the inhibition was competitive or noncompetitive. KI was determined by using Dixon plots, which use the reciprocal velocity of multiple steady-state kinetic experiments at multiple substrate and inhibitor concentrations to extrapolate the concentration of inhibitor that results in half-maximal inhibition (Yoshino and Murakami, [2009]). All experiments were run in triplicate and averages used for kinetic analysis.

[7] = test system: Halobacterium sp. NRC-1; test: Aerobic growth rate of Halobacterium sp. NRC-1 with added salts; format: cell-based; settings: Mg2+ added
Protocol: as §1

[8] = test system: Halorubrum lacusprofundi; test: Aerobic growth rate of Halorubrum lacusprofundi with added salts; format: cell-based
Protocol: as §1

[9] = test system: methanogens; parameters: method as in Kral et al., 2004; settings: grown on Mars soil simulant; ref Kral et al., 2004; cited from earlier work

[O-][Cl+3]([O-])([O-])O [NaClO4, sodium perchlorate]
reduction in methanogenesis [1]: 80% | anaerobic growth with perchlorate [2]: able to grow anaerobically | reduction in methanogenesis [3]: 80% | anaerobic growth with perchlorate [4]: incapable of anaerobic growth | reduction in methanogenesis [5]: 80% | type of inhibition ([6]; listed as perchlorate): very weak noncompetitive inhibitor | type of inhibition ([6]; listed as perchlorate ions): noncompetitive inhibitor | type of inhibition ([6]; listed as sodium perchlorate): noncompetitive inhibition | protein precipitation (salting-out) ([6]; at the concentrations tested): no protein precipitation

[Mg+2] [MgCl2, magnesium chloride]
concentration up to which no significantly deleterious effect on growth [7]: ~1 M | highest concentration at which a measurable growth rate was recorded ([8]; ATCC 1682 medium): 1.4 M | inhibition of growth at 1.2 M ([8]; Halorubrum lacusprofundi, 1.2 M Mg2+ (MgCl2 added), read-out: decrease in growth rate): 40% | inhibition of growth at 1.4 M ([8]; Halorubrum lacusprofundi, 1.4 M Mg2+ (MgCl2 added), read-out: decrease in growth rate): 80% | concentration up to which a substantial growth rate is retained / no significantly deleterious effect ([8]; MgCl2 added, listed as Mg^2+): 0.9 M and ~1 M | inhibition at 250000 µM ([6]; 0.5 M Na+ replaced with 0.25 M Mg2+ using magnesium chloride, read-out: decrease in catalytic efficiency): 70% | type of inhibition [6]: competitive inhibitor | type of inhibition ([6]; listed as Mg^2+): competitive inhibition

[O-][Cl+3]([O-])([O-])O [Mg(ClO4)2, magnesium perchlorate]
concentration up to which methanogens metabolize [9]: up to 0.06 M | type of inhibition [6]: mixed inhibitor; also recorded: mixed inhibition

— publication PMC5910040, “An Antarctic Extreme Halophile and Its Polyextremophilic Enzyme: Effects of Perchlorate Salts” (Astrobiology, 2018)
